Results published in ChEMBL document CHEMBL2321873, “1-(4-Phenylpiperazin-1-yl)-2-(1H-pyrazol-1-yl)ethanones as novel CCR1 antagonists” (Bioorg Med Chem Lett, 2013).

Key:
[1] = Oral bioavailability in Sprague-Dawley rat at 5 mg/kg; type: ADME, organism-based; details: in vivo
[2] = Half life in Sprague-Dawley rat at 0.5 mg/kg, iv; type: ADME, organism-based; design: dose 0.5 mg/kg, route intravenous; details: in vivo
[3] = Clearance in Sprague-Dawley rat at 0.5 mg/kg, iv; type: ADME, organism-based; design: dose 0.5 mg/kg, route intravenous; details: in vivo
[4] = Stability of the compound at pH 7.4; type: physicochemical; details: buffer

SMILES | bioavailability [1] | half-life [2] | clearance [3] | Stability [4]
Cc1c(Cl)c(C(F)(F)F)nn1CC(=O)N1CCN(c2ccc(F)cc2)CC1 | 10% | 1.9 h | 23 mL/min/kg | 
COc1cc(N2CCN(C(=O)Cn3nc(C(F)(F)F)c(Cl)c3C)[C@H](CO)C2)ccc1Cl |  |  |  | Unstable
